Where two headings read alike, the source gives them in different places.
Tests used:
[1] = biological target: T1, CB2 receptor (Homo sapiens, UniProt P34972); experiment: GTPγ-S binding assay, CB2; type: biochemical
Description: The activity of some of the disclosed compounds for the CB1 and CB2 receptors was assessed by using the GTPγ-S binding assay (Tables 2,3,4). As used herein the “effect” of the compound on the GTPγ-S assay is represented by the EC50 (GTP) value. The lower the EC50 (GTP) value the higher the potency of the compound for the receptor A detailed description of the methods used to test compounds using the GTPγ-S assay is given in Parkkari, et al., Biorg. Med. Chem. Letters 2006, 16(9), 2437 and Griffin, et al., J. Pharmacol. Exp. Ther. 1998, 285(2), 553-560 the content of which is hereby incorporated by reference.

[2] = biological target: CB2 receptor (hCB2) (Homo sapiens, UniProt P34972); experiment: cAMP assay (inhibition of FSK stimulated cAMP), CB2; type: cell-based
Chain of CB2 receptor (hCB2) (P34972 whole entry): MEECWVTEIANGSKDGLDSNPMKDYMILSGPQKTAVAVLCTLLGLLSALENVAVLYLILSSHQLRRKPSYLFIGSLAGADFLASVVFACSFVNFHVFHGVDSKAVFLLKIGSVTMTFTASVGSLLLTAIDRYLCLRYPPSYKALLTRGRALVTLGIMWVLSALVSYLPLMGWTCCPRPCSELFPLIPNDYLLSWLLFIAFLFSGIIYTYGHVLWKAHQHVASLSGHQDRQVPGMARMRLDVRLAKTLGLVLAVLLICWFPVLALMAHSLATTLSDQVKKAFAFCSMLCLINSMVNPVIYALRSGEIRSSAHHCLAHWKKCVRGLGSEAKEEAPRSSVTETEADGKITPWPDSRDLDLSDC
Description: FIG. 2A is a graph providing data of the % inhibition of FSK stimulated cAMP for compound 6.1.1 for hCB2.
Further functional characterization of some of the disclosed compounds tested initially for “binding affinity” or for GTPγ-S binding was performed by using the cyclic adenosine monophosphate (cAMP) assay. Key compounds initially characterized functionally using the GTPγ-S assay were also doubly tested using the cAMP assay to unambiguously confirm their functional profiles. The functional potency of the compounds tested using the cyclase assay is also represented by the EC50 (cAMP) value and similarly the lower the EC50 (cAMP) value the higher the potency of the compound for the receptor. A detailed description of the methods used to test compounds using the cAMP assay is given in Yingpeng, et al. J. Med. Chem. (2018) 61, 8639-8657 the content of which is hereby incorporated by reference. The EC50 values (potency of a test compound) of the functional assays may or may not be accompanied by the E(max) value in tables 1-5 (efficacy of the test compound). E(max)/efficacy is the maximum GTP stimulation or cAMP inhibition levels and is presented as the percentage of maximum response evoked by a standard CB1/CB2 full agonist (e.g., CP-55,940) for reference see the paper cited above. If a test compound has an efficacy close to 100% of the standard full agonist, then the test compound is also classified as full agonist.

[3] = biological target: T1, CB2 receptor; experiment: CB2 receptor binding affinity (Ki); design: CB2 receptor Ki; CB2 receptor Ki (PMSF); other: with PMSF
Description: (§1) Some disclosed compounds were tested for CB1 and CB2 receptor binding affinity (Tables 1, 2, 3, 4, 5). As used herein “binding affinity” is represented by the Ki value. The Ki value is the affinity constant and describes the affinity of the compound for the receptor. […] A detailed description of the methods used to test “binding affinity” of compounds is given in Makriyannis, et al., US 2007/0135388 the content of which is hereby incorporated by reference.

[4] = biological target: T2, CB1 receptor (Rattus norvegicus, UniProt P20272); experiment: CB1 receptor binding affinity (Ki)
T2 sequence (P20272 whole entry): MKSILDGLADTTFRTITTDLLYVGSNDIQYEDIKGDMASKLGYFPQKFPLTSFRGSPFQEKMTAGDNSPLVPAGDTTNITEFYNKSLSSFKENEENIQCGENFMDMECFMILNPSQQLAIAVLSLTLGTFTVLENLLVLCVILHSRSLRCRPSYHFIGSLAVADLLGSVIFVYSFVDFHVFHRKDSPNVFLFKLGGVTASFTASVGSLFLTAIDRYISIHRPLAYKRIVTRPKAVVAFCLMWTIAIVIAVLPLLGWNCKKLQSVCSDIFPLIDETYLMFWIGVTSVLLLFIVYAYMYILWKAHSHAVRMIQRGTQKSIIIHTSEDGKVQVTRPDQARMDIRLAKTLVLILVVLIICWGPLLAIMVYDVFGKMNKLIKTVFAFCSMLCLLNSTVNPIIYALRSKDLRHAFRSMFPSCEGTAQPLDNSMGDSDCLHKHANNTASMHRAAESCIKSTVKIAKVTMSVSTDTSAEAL
Description: as §1

[5] = biological target: CB1 receptor (rCB1) (Rattus norvegicus, UniProt P20272); experiment: cAMP assay (inhibition of FSK stimulated cAMP), CB1; type: cell-based
Chain of CB1 receptor (rCB1) (P20272 whole entry): as above
Description: Further functional characterization of some of the disclosed compounds tested initially for “binding affinity” or for GTPγ-S binding was performed by using the cyclic adenosine monophosphate (cAMP) assay. […] A detailed description of the methods used to test compounds using the cAMP assay is given in Yingpeng, et al. J. Med. Chem. (2018) 61, 8639-8657 the content of which is hereby incorporated by reference. The EC50 values (potency of a test compound) of the functional assays may or may not be accompanied by the E(max) value in tables 1-5 (efficacy of the test compound). E(max)/efficacy is the maximum GTP stimulation or cAMP inhibition levels and is presented as the percentage of maximum response evoked by a standard CB1/CB2 full agonist (e.g., CP-55,940) for reference see the paper cited above.

[6] = biological target: T1, CB2 receptor; experiment: hCB2 receptor binding affinity (Ki), Table 7
Description: Some disclosed compounds were tested for CB1 and CB2 receptor binding affinity (Tables 1, 2, 3, 4, 5). As used herein “binding affinity” is represented by the Ki value. The Ki value is the affinity constant and describes the affinity of the compound for the receptor. The lower the Ki value, the higher the affinity of the compound for the receptor. A detailed description of the methods used to test “binding affinity” of compounds is given in Makriyannis, et al., US 2007/0135388 the content of which is hereby incorporated by reference.

[7] = biological target: T2, CB1 receptor; experiment: GTPγ-S binding assay, CB1; type: biochemical; conditions: class symbols; read-out: EC50 (GTP) CB1 receptor
Description: The activity of some of the disclosed compounds for the CB1 and CB2 receptors was assessed by using the GTPγ-S binding assay (Tables 2,3,4). As used herein the “effect” of the compound on the GTPγ-S assay is represented by the EC50 (GTP) value. […] Med. Chem. Letters 2006, 16(9), 2437 and Griffin, et al., J. Pharmacol. Exp. Ther. 1998, 285(2), 553-560 the content of which is hereby incorporated by reference.

[8] = biological target: T1, CB2 receptor; experiment: CB2 receptor binding affinity (Ki); design: CB2 receptor Ki
Description: as §1

[9] = with PMSF, read-out: CB1 Receptor Ki with PMSF
[10] = without PMSF, read-out: CB1 receptor affinity Ki
[11] = percentage of maximum response of standard full agonist (e.g., CP-55,940)

T1 sequence (P34972 whole entry): as the sequence (P34972 whole entry) above

CCCCC/C=C\C/C=C\C/C=C\C/C=C\CCCC(=O)OC(CO)CO [Compound 2-AG, 2-arachidonoylglycerol, reference compound]
EC50 ([1]; class symbols, read-out: EC50 (GTP) CB2 receptor): 200 to 1000 nM | EC50 ([2]; class symbols): 10 to 200 nM

C[C@H](/C=C\C/C=C\C/C=C\CCCC(=O)N[C@H](C)CO)/C=C\CCCCCC#N [Compound 4.1.5a, (S,5Z,8Z,11Z,14Z)-20-Cyano-N—((R)-1-hydroxypropan-2-yl)-13-methylicosa-5,8,11,14-tetraenamide]
Ki ([3]; read-out: CB2 receptor Ki): 0.01 to 10 nM | Ki [4, 9]: 0.01 to 10 nM | Ki [4, 10]: 0.01 to 10 nM | functional profile at CB1 (cAMP) ([5]; full or partial agonist): partial agonist | EC50 ([5]; numeric): 8.7 nM | Emax [5, 11]: 76%

C[C@H](/C=C\C/C=C\C/C=C\CCCC(=O)N[C@H](C)CO)/C=C\CCCCC(F)(F)F [Compound 4.1.5c]
Ki [6]: 3.6 nM | fold higher binding affinity for CB2 compared to AM 356 ([6]; vs AM 356): 61 fold | fold higher binding affinity for CB2 compared to AMG 315 ([6]; vs AMG 315): 49 fold

CCCCC1(/C=C\C/C=C\C/C=C\C/C=C\CCCC(=O)N[C@H](C)CO)CCCC1 [Compound 4.4.3, (5Z,8Z,11Z,14Z)-15-(1-Butylcyclopentyl)-N—((R)-1-hydroxypropan-2-yl)pentadeca-5,8,11,14-tetraenamide]
Ki ([3]; read-out: CB2 receptor Ki (PMSF), with PMSF): > 1000 nM | Ki [4, 9]: 200 to 1000 nM

CCCCCc1ccccc1C/C=C\C/C=C\C/C=C\CCCC(=O)N[C@H](C)CO [Compound 4.6.3, (5Z,8Z,11Z)—N—((R)-1-hydroxypropan-2-yl)-13-(2-pentylphenyl)trideca-5,8,11-trienamide]
Ki ([3]; read-out: CB2 receptor Ki): 10 to 200 nM | Ki [4, 9]: 10 to 200 nM | Ki [4, 10]: 10 to 200 nM

C[C@H](/C=C\C/C=C\C/C=C\CCCC(=O)N[C@H](C)CO)/C=C\CCCCCO [Compound 4.7.2]
Ki ([3]; read-out: CB2 receptor Ki): 10 to 200 nM | Ki [4, 10]: 10 to 200 nM

C[C@H](/C=C\C/C=C\C/C=C\CCCC(=O)N[C@H](C)CO)/C=C\CCCCCF [Compound 4.7.4, (S,5Z,8Z,11Z,14Z)-20-Fluoro-N—((R)-1-hydroxypropan-2-yl)-13-methylicosa-5,8,11,14-tetraenamide]
Ki ([3]; read-out: CB2 receptor Ki): 10 to 200 nM | Ki [4, 10]: 0.01 to 10 nM

CCCCC/C=C\C/C=C\C/C=C\C/C=C\C1CC[C@@H](C(=O)OC(CO)CO)C1 (some centres unmarked) [Compound 5.2.2e]
EC50 [7]: > 1000 nM | EC50 ([2]; class symbols): 200 to 1000 nM

CCCCC/C=C\C/C=C\C/C=C\C/C=C\COC(C)C(=O)OC(CO)CO (centres unmarked) [Compound 5.3.3, 1,3-Dihydroxypropan-2-yl 2-(((2Z,5Z,8Z,11Z)-heptadeca-2,5,8,11-tetraen-1-yl)oxy)propanoate]
EC50 [7]: > 1000 nM

CCCCC/C=C\C/C=C\C/C=C\[C@H](C)/C=C\CCCC(=O)OC(CO)CO [Compound 5.4.3a, 1,3-Dihydroxypropan-2-yl (R,5Z,8Z,11Z,14Z)-7-methylicosa-5,8,11,14-tetraenoate]
EC50 [1]: 200 to 1000 nM | EC50 [7]: > 1000 nM

CCCCC/C=C\C/C=C\C/C=C\[C@@H](C)/C=C\CCCC(=O)OC(CO)CO [Compound 5.4.3b, 1,3-Dihydroxypropan-2-yl (S,5Z,8Z,11Z,14Z)-7-methylicosa-5,8,11,14-tetraenoate]
EC50 [1]: > 1000 nM | EC50 [7]: > 1000 nM

CCCCC/C=C\[C@H](C)/C=C\C/C=C\C/C=C\CCCCNC(=O)COC [Compound 6.1.1, 2-Methoxy-N—((S,5Z,8Z,11Z,14Z)-13-methylicosa-5,8,11,14-tetraen-1-yl)acetamide]
Ki [4, 10]: 0.01 to 10 nM | functional profile at CB2 (cAMP) ([2]; full or partial agonist): partial agonist | EC50 ([2]; numeric): 1.2 nM | Emax [2, 11]: 40% | Ki [8]: 0.01 to 10 nM

From patent US20260234099A1, “Endocannabinoid ligands and related analogs” (Northeastern University, priority 2023, published 2026)
